# Data taken from paper PMC6306373, “The development of a GPR44 targeting radioligand [^11C]AZ12204657 for in vivo assessment of beta cell mass” (EJNMMI Research, 2018).
# Biological target: T1, GPR44 (prostaglandin D2 receptor 2, DP2, CRTh2) (Homo sapiens, UniProt Q9Y5Y4)
# T1 construct: gene PTGDR2; human recombinant GPR44 co-expressed with Gα16 in HEK293 cell membranes
# T1 sequence (Q9Y5Y4 1-395): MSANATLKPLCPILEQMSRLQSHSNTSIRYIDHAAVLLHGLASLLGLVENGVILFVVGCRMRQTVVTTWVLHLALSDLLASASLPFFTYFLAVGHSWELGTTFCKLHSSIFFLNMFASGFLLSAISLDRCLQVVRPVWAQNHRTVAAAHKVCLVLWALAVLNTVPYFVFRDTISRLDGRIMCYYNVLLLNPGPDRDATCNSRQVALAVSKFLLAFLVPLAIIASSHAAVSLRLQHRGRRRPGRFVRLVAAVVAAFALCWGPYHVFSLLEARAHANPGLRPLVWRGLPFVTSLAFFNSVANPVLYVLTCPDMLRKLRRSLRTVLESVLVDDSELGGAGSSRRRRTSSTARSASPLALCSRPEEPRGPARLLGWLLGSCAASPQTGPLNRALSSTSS
# Test: [3H]PGD2 displacement SPA on HEK293 membranes; also displacement of [[…]-3H-phenoxy]-AZ12204657 by filtration (IC50 […])
# Format: binding
compound,measurement,value
"C[C@H](Oc1ccc(Cl)cc1Oc1ccc(S(C)(=O)=O)cc1Cl)C(=O)O [AZ12204657, (S)-2-(4-chloro-2-[2-chloro-4-(methylsulfonyl)phenoxy]phenoxy) propanoic acid]",IC50,2.5 nM
